Data on one compound can be found in EP0450660B1, “Anti-atherosclerotic diaryl compound” (THE WELLCOME FOUNDATION LIMITED, priority 1988, dated 1990).

The target of one series is T1, ACAT (Homo sapiens, UniProt P35610).
T1 construct: Microsomal protein is therefore used as the source of both ACAT and cholesterol; endogenous in cells; host or cells: human embryo 407 intestinal epithelial cell line (microsomal fraction)
T1 sequence (P35610 1-550): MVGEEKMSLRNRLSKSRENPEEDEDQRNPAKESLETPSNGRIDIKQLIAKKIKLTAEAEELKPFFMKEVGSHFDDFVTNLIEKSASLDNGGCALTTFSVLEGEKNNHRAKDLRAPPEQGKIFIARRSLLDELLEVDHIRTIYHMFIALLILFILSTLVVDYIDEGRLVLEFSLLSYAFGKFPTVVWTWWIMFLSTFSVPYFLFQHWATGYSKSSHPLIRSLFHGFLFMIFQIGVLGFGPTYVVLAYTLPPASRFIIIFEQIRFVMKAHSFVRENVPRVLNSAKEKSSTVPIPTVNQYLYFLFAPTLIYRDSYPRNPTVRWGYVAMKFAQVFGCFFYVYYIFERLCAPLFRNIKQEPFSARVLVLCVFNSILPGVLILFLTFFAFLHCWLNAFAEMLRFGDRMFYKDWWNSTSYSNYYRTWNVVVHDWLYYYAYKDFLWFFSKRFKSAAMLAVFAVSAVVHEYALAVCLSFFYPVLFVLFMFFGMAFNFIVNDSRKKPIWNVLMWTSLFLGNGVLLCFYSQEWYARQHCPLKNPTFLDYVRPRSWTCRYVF
Put plainly: In vitro inhibition of ACAT (radiometric, [14C]oleoyl CoA substrate, microsomal protein). It counts as biochemical. The following applies: enzyme derived from human embryo 407 intestinal epithelial cell line, 37°C, pH 7.0, 4 minutes, read-out: IC₅₀ for ACAT inhibition. Here is the method: In vitro inhibition of ACAT
The in vitro esterification of cholesterol in the presence of ACAT and the test compound was assayed radiometrically using [¹⁴C]oleoyl CoA as substrate: [¹⁴C]oleoyl CoA + cholesterol → [¹⁴C]oleoyl cholesterol + CoASH [formula]
The enzyme is membrane-associated in vivo. Microsomal protein is therefore used as the source of both ACAT and cholesterol. The compound of the invention was tested against enzyme derived from human embryo 407 intestinal epithelial cell line.
[¹⁴C]Oleoyl CoA was incubated with microsomal protein at 37°C, pH 7.0, in the presence of various concentrations of the test compound. After 4 minutes, the reaction was stopped by the addition of ice-cold chloroform/methanol containing a known amount of [³H]oleoyl cholesterol to compensate for the loss of any [¹⁴C] product. A known volume of the resulting lower phase, which contains lipidic material from the reaction, was dried, redissolved in hexane containing unlabelled oleoyl cholesterol (TLC marker) and run on a quantitative TLC plate (silica gel). The oleoyl cholesterol spot was visualised (iodine vapour), removed from the TLC plate and its radioactivity measured by scintillation counting.
A plot of ACAT inhibitory activity vs concentration was prepared for the test compound and the corresponding IC₅₀ determined.

Another series concerns isolated rat liver cells. Description: In vitro cytotoxicity: effects on metabolic competence of isolated rat liver cells. It counts as cell-based. As for the experimental part:
The cytotoxicity of the compound of the invention was investigated in vitro by studying its effects on the metabolic competence of isolated rat liver cells. […] A 15% decrease in ATP levels was observed after 90 minutes at a concentration of 100µM.

In the case of `CCCCCCCNC(=O)Nc1c(F)cc(F)cc1CCc1ccc(CC(C)(C)C)cc1` [compound of the invention, 1-[2,4-difluoro-6-{2-[4-(2,2-dimethylpropyl)phenyl]ethyl}phenyl]-3-heptylurea], at ACAT, the IC50 is 0.022 µM. In addition, the “decrease in ATP levels” value in the series on isolated rat liver cells (after 90 minutes at a concentration of 100µM) is reported as 15%. The effect on gluconeogenesis entry with isolated rat liver cells (concentrations of up to 100µM) is on record as “No effect”.
